From patent US12325706B2, “Polymorphic form of sepiapterin” (PTC Therapeutics MP, Inc., priority 2016, dated 2025)

Legend:
[1] = Storage stability of sepiapterin polymorph forms, HPLC purity; assay type: physicochemical; parameters: Impurity RRT 1.06 (HPLC) / Impurity RRT 1.08 (HPLC) / Impurity RRT 1.17 (HPLC) / Impurity RRT 1.21 (HPLC) / Impurity RRT 1.25 (HPLC) / Impurity RRT 0.62 (HPLC) / Impurity RRT 0.89 (HPLC) / Impurity RRT 0.95 (HPLC) / Impurity RRT 0.60 (HPLC): unit not given here; details: for Purity of initial samples by HPLC: before storage; for Stability on storage as determined by HPLC, comparison of forms in words: storage up to 4 weeks at RT
Description: (§1) Form A and F samples were placed in chambers with silica gel to remove water (the relative humidity was measured to be ˜10% RH) at different temperatures. Form D samples were placed in chambers with water (relative humidity was estimated to be ˜100% RH) at different temperatures.
(§2) The HPLC purities and XRD patterns were obtained for each of Form A/F/D samples stored at various temperatures.
Samples of sepiapterin free base polymorph Forms D, F, and A were stored at room temperature (RT), 35° C., and 50° C. The samples were analyzed by HPLC at 1 week and 4 week intervals.

[2] = Storage stability of sepiapterin polymorph forms, form change by XRD; assay type: physicochemical
Description: as §1, §2

[3] = storage 1 week, 35° C., 100% RH
[4] = storage 1 week, 50° C., 100% RH
[5] = storage 4 weeks, 35° C., 100% RH
[6] = storage 4 weeks, 50° C., 100% RH
[7] = 35° C./10% RH, 1 w, listed as Polymorph F
[8] = 35° C./10% RH, 4 w, listed as Polymorph F
[9] = 50° C./10% RH, 1 w, listed as Polymorph F
[10] = 50° C./10% RH, 4 w, listed as Polymorph F
[11] = RT/10% RH, 1 w, listed as Polymorph F
[12] = RT/10% RH, 4 w, listed as Polymorph F
[13] = storage 4 weeks, 35° C., 10% RH
[14] = storage 4 weeks, 50° C., 10% RH

Structure (SMILES): C[C@H](O)C(=O)C1=Nc2c(nc(N)[nH]c2=O)NC1 [Form D, sepiapterin]
- Impurity RRT 0.62 (HPLC) ([1]; 35° C./100% RH, 1 w): <0.05
- Impurity RRT 0.95 (HPLC) ([1]; 35° C./100% RH, 1 w): 0.86
- Impurity RRT 1.08 (HPLC) ([1]; 35° C./100% RH, 1 w): 0.14
- Impurity RRT 1.17 (HPLC) ([1]; 35° C./100% RH, 1 w): 0.17
- Sepiapterin RRT 1.00 (HPLC), amount of sepiapterin ([1]; 35° C./100% RH, 1 w): 98.83%
- Impurity RRT 0.62 (HPLC) ([1]; 35° C./100% RH, 4 w): 0.09
- Impurity RRT 0.95 (HPLC) ([1]; 35° C./100% RH, 4 w): 1.04
- Impurity RRT 1.08 (HPLC) ([1]; 35° C./100% RH, 4 w): <0.05
- Impurity RRT 1.17 (HPLC) ([1]; 35° C./100% RH, 4 w): 0.17
- Sepiapterin RRT 1.00 (HPLC), amount of sepiapterin ([1]; 35° C./100% RH, 4 w): 98.70%
- Impurity RRT 0.62 (HPLC) ([1]; 50° C./100% RH, 1 w): 0.08
- Impurity RRT 0.95 (HPLC) ([1]; 50° C./100% RH, 1 w): 1.05
- Impurity RRT 1.08 (HPLC) ([1]; 50° C./100% RH, 1 w): 0.26
- Impurity RRT 1.17 (HPLC) ([1]; 50° C./100% RH, 1 w): 0.16
- Sepiapterin RRT 1.00 (HPLC), amount of sepiapterin ([1]; 50° C./100% RH, 1 w): 98.45%
- Impurity RRT 0.62 (HPLC) ([1]; 50° C./100% RH, 4 w): 0.14
- Impurity RRT 0.95 (HPLC) ([1]; 50° C./100% RH, 4 w): 2.03
- Impurity RRT 1.08 (HPLC) ([1]; 50° C./100% RH, 4 w): <0.05
- Impurity RRT 1.17 (HPLC) ([1]; 50° C./100% RH, 4 w): 0.18
- Sepiapterin RRT 1.00 (HPLC), amount of sepiapterin ([1]; 50° C./100% RH, 4 w): 97.65%
- Impurity RRT 1.08 (HPLC) ([1]; Initial): <0.05
- Impurity RRT 1.17 (HPLC) ([1]; Initial): 0.17
- Impurity RRT 0.62 (HPLC) ([1]; Initial, listed as Polymorph D): <0.05
- Impurity RRT 0.95 (HPLC) ([1]; Initial, listed as Polymorph D): 0.69
- Sepiapterin RRT 1.00 (HPLC), amount of sepiapterin ([1]; Initial, listed as Polymorph D): 99.14%
- Sepiapterin RRT 1.00 (HPLC), amount of sepiapterin ([1]; Initial, listed as polymorph D): 99.14%
- Impurity RRT 0.62 (HPLC) ([1]; RT/100% RH, 1 w): <0.05
- Impurity RRT 0.95 (HPLC) ([1]; RT/100% RH, 1 w): 0.83
- Impurity RRT 1.08 (HPLC) ([1]; RT/100% RH, 1 w): <0.05
- Impurity RRT 1.17 (HPLC) ([1]; RT/100% RH, 1 w): 0.16
- Sepiapterin RRT 1.00 (HPLC), amount of sepiapterin ([1]; RT/100% RH, 1 w): 99.01%
- Impurity RRT 0.62 (HPLC) ([1]; RT/100% RH, 4 w): 0.09
- Impurity RRT 0.95 (HPLC) ([1]; RT/100% RH, 4 w): 0.81
- Impurity RRT 1.08 (HPLC) ([1]; RT/100% RH, 4 w): <0.05
- Impurity RRT 1.17 (HPLC) ([1]; RT/100% RH, 4 w): 0.17
- Sepiapterin RRT 1.00 (HPLC), amount of sepiapterin ([1]; RT/100% RH, 4 w): 98.92%
- Purity of initial samples by HPLC [1]: 99.1 area %
- % of Initial [1, 3]: 99.7%
- Purity (area %) [1, 3]: 98.8 area %
- % of Initial [1, 4]: 99.3%
- Purity (area %) [1, 4]: 98.5 area %
- % of Initial ([1]; storage 1 week, RT, 100% RH): 99.9%
- Purity (area %) ([1]; storage 1 week, RT, 100% RH): 99.0 area %
- % of Initial [1, 5]: 99.6%
- Purity (area %) [1, 5]: 98.7 area %
- % of Initial [1, 6]: 98.5%
- Purity (area %) [1, 6]: 97.7 area %
- % of Initial ([1]; storage 4 weeks, RT, 100% RH): 99.8%
- Purity (area %) ([1]; storage 4 weeks, RT, 100% RH): 98.9 area %
- Stability on storage as determined by HPLC, comparison of forms in words ([1]; 35° C., 50° C., listed as polymorph D): significantly greater stability than polymorph A
- Form change [2, 3]: No
- Form change [2, 4]: No
- Form change ([2]; storage 1 week, RT, 100% RH): No
- Form change [2, 5]: No
- Form change [2, 6]: No
- Form change ([2]; storage 4 weeks, RT, 100% RH): No

Structure (SMILES): C[C@H](O)C(=O)C1=Nc2c(nc(N)[nH]c2=O)NC1 [Form F, sepiapterin]
- Impurity RRT 0.60 (HPLC) ([1]; 35° C./10% RH, 1 w): <0.05
- Impurity RRT 0.95 (HPLC) [1, 7]: 0.35
- Impurity RRT 1.08 (HPLC) [1, 7]: 0.06
- Impurity RRT 1.17 (HPLC) [1, 7]: 0.15
- Sepiapterin RRT 1.00 (HPLC), amount of sepiapterin [1, 7]: 99.43%
- Impurity RRT 0.60 (HPLC) ([1]; 35° C./10% RH, 4 w): <0.05
- Impurity RRT 1.08 (HPLC) ([1]; 35° C./10% RH, 4 w): <0.05
- Impurity RRT 0.95 (HPLC) [1, 8]: 0.42
- Impurity RRT 1.17 (HPLC) [1, 8]: 0.15
- Sepiapterin RRT 1.00 (HPLC), amount of sepiapterin [1, 8]: 99.43%
- Impurity RRT 0.60 (HPLC) ([1]; 50° C./10% RH, 1 w): <0.05
- Impurity RRT 0.95 (HPLC) [1, 9]: 0.58
- Impurity RRT 1.08 (HPLC) [1, 9]: 0.11
- Impurity RRT 1.17 (HPLC) [1, 9]: 0.15
- Sepiapterin RRT 1.00 (HPLC), amount of sepiapterin [1, 9]: 99.15%
- Impurity RRT 0.60 (HPLC) ([1]; 50° C./10% RH, 4 w): 0.12
- Impurity RRT 1.17 (HPLC) ([1]; 50° C./10% RH, 4 w): 0.17
- Impurity RRT 0.95 (HPLC) [1, 10]: 0.86
- Impurity RRT 1.08 (HPLC) [1, 10]: <0.05
- Sepiapterin RRT 1.00 (HPLC), amount of sepiapterin [1, 10]: 98.85%
- Sepiapterin RRT 1.00 (HPLC), amount of sepiapterin ([1]; 50° C./10% RH, 4 w, listed as polymorph F): 98.85%
- Impurity RRT 0.60 (HPLC) ([1]; Initial): <0.05
- Impurity RRT 1.08 (HPLC) ([1]; Initial): <0.05
- Impurity RRT 1.17 (HPLC) ([1]; Initial): 0.17
- Impurity RRT 0.95 (HPLC) ([1]; Initial, listed as Polymorph F): 0.09
- Sepiapterin RRT 1.00 (HPLC), amount of sepiapterin ([1]; Initial, listed as Polymorph F): 99.74%
- Sepiapterin RRT 1.00 (HPLC), amount of sepiapterin ([1]; Initial, listed as polymorph F): 99.74%
- Impurity RRT 0.60 (HPLC) ([1]; RT/10% RH, 1 w): <0.05
- Impurity RRT 1.17 (HPLC) ([1]; RT/10% RH, 1 w): 0.16
- Impurity RRT 0.95 (HPLC) [1, 11]: 0.29
- Impurity RRT 1.08 (HPLC) [1, 11]: 0.14
- Sepiapterin RRT 1.00 (HPLC), amount of sepiapterin [1, 11]: 99.42%
- Impurity RRT 0.60 (HPLC) ([1]; RT/10% RH, 4 w): <0.05
- Impurity RRT 1.08 (HPLC) ([1]; RT/10% RH, 4 w): <0.05
- Impurity RRT 1.17 (HPLC) ([1]; RT/10% RH, 4 w): 0.16
- Impurity RRT 0.95 (HPLC) [1, 12]: 0.30
- Sepiapterin RRT 1.00 (HPLC), amount of sepiapterin [1, 12]: 99.54%
- Purity of initial samples by HPLC [1]: 99.7 area %
- % of Initial ([1]; storage 1 week, 35° C., 10% RH): 99.7%
- Purity (area %) ([1]; storage 1 week, 35° C., 10% RH): 99.4 area %
- % of Initial ([1]; storage 1 week, 50° C., 10% RH): 99.4%
- Purity (area %) ([1]; storage 1 week, 50° C., 10% RH): 99.2 area %
- % of Initial ([1]; storage 1 week, RT, 10% RH): 99.7%
- Purity (area %) ([1]; storage 1 week, RT, 10% RH): 99.4 area %
- % of Initial [1, 13]: 99.7%
- Purity (area %) [1, 13]: 99.4 area %
- % of Initial [1, 14]: 99.1%
- Purity (area %) [1, 14]: 98.9 area %
- % of Initial ([1]; storage 4 weeks, RT, 10% RH): 99.8%
- Purity (area %) ([1]; storage 4 weeks, RT, 10% RH): 99.5 area %
- Stability on storage as determined by HPLC, comparison of forms in words ([1]; 35° C., 50° C., listed as polymorph F): significantly greater stability than polymorph A
- Form change ([2]; storage 1 week, 35° C., 10% RH): No
- Form change ([2]; storage 1 week, 50° C., 10% RH): No
- Form change ([2]; storage 1 week, RT, 10% RH): No
- Form change [2, 13]: No
- Form change [2, 14]: No
- Form change ([2]; storage 4 weeks, RT, 10% RH): No
